Source: patent US20220153746A1, “NITROGEN OXIDE-DONATING PDE-5 AND/OR PDE-6 INHIBITOR COMPOUNDS, AND USES THEREOF” (ILDONG PHARMACEUTICAL CO., LTD., priority 2020, published 2022)

Experiments:
[1] = molecular target: human PDE-5A1 (Homo sapiens, UniProt O76074); assay: Human PDE-5A1 inhibition assay (fluorescence polarization, FAM-cGMP); type: biochemical; conditions: read-out: IC50 (μM) PDE5A1
[2] = molecular target: human PDE-6C (Homo sapiens, UniProt P51160); assay: Human PDE-6C inhibition assay (fluorescence polarization, FAM-cGMP); type: biochemical; conditions: read-out: IC50 (μM) PDE6C
[3] = tested on: intraocular pressure (IOP) of ocular normotensive rabbits; assay: IOP lowering effect in ocular normotensive rabbits (Example 8; Example 9 Phase 1); type: in vivo, New Zealand White Rabbits (Oryctolagus cuniculus); conditions: for OD IOP Mean: 50 μL/eye once, treated right eye, Day 1
Source text: This example illustrates the procedures and results of the intraocular pressure (IOP) lowering effect of compound 18 as compared to Latanoprostene bunod and latanoprost at different concentrations in ocular normotensive rabbits.
Forty (40) male New Zealand white rabbits were divided into 4 groups with 10 animals per group. Animals were then randomly assigned to groups based on body weight.
Latanoprostene bunod ophthalmic solution (LBN, 0.024%) and latanoprost eye drops (0.005%) were used as positive controls and dosed with the same volumes into the right eyes of the tested animals in groups 1 and 2 once.
Compound 18 was instilled into the right eyes of the tested animals in groups 3 (10 mg/mL) and 4 (20 mg/mL) at 50 μL per eye once.
All left eyes of the tested animals in each group were dosed with vehicle solution at 50 μL per eye.
The intraocular pressures (IOPs) were measured once at pre-dose and then once at 1, 2, 4, 6, 8, and 10 hours post dose for each group of animals. FIGS. 1 to 4 show the results from the IOP lowering studies for all four tested groups.
Phase 1: To confirm the IOP lowering effect of test article at different concentrations in ocular normotensive rabbits. Compound 18 was instilled into right eyes of animals in groups 3 and 4, 50 μL/eye, once. 0.024% latanoprostene bunod ophthalmic solution (LBN) and 0.005% latanoprost eye drops were served as positive control and be dosed with same volume into right eyes of groups 1 and 2 animals once. All left eyes of animals in each group were dosed with vehicle once, 50 μL/eye. IOPs was measured once at pre-dose and once at 1, 2, 4, 6, 8, 10 hours post dose. […]
(§1) Delivery Method: Drawed 50 μL of the articles with a pipette, pulled out the lower eyelid of the animal, dropped the article into the conjunctiva sac, and gently closed the upper and lower eyelids for a few times.
(§2) Species/Strain: New Zealand White Rabbits (Oryctolagus cuniculus). The New Zealand White Rabbit was used in this study. This is commonly used specie for non-clinical studies of ophthalmic formulations, for which there is a large historical database, and the relative large cornea size is suitable for topical operations.
(§3) Restrained the animal, made the testing eye perpendicular to the probe of the TonoVet tonometer, measured the IOP for at least three times until the values are stable. The mean of the last three stable values were calculated as the final IOP value.
IOP Measurement in Ocular Normotensive Rabbits: IOP was measured at pre-dose and once at 1, 2, 4, 6, 8, 10 hours post dose in study phase 1.

[4] = tested on: intraocular pressure (IOP) of ocular hypertensive rabbits; assay: IOP lowering effect in ocular hypertensive rabbits (Example 9 Phase 2); type: in vivo; conditions: for Reduction ratio of IOP / OD IOP Mean: 50 μL/eye t.i.d.; for Reduction ratio of IOP: treated right vs vehicle left eye; for IOP compared with the vehicle treated eyes: p≤0.05; for OD IOP Mean: treated right eye, Day 10/11
Protocol: Phase 2: To confirm the IOP lowering effect of test article at different concentrations in ocular hypertensive rabbits. Modeling was induced by intracameral injection of elastic substance in both eyes, once. Then, positive control articles/test article was instilled into right eyes of animals, 50 μL/eye, once at 5-15 minutes, 3 and 6 hours post modeling, respectively. All left eyes of animals in each group were dosed with vehicle, 50 μL/eye, once at 5-15 minutes, 3 and 6 hours post modeling, respectively. IOPs was measured at pre-modeling, 1, 2, 4, 6, 8, and 10 hours post first dose.
For further analysis of the IOP reduction effect, the IOP reduction ratio was calculated using the difference between the TA/PA treated and vehicle treated eyes at each time points post first dosing. The results were tabulated below:
Animals were sedated by Ketamine (30˜50 mg/kg) and anesthetized by Xylazine (5˜10 mg/kg), intramuscularly. Disinfected the conjunctival sac by washing with 5% povidone iodine, and then washed the conjunctival sac with saline. Fixed the eyeball with forceps, then inserted needle from the temporal limbus horizontally, avoided damaging the corneal endothelial and iris. Held the syringe still and injected the Medical Sodium Hyaluronate Gel slowly into the anterior chamber, 100 μl/eye, waited for at least 10 seconds, then pulled out the needle slowly. Pressed the injection spot immediately with swab for at least 3 minutes, blocked the injection spot with one drop of tissue adhesive.
For Phase 2, 50 μL of 1% and 2% Compound 18, 0.024% latanoprostene bunod ophthalmic solution and 0.005% latanoprost eye drops were instilled into the right eyes and the same volume of Vehicle (Gel-blank) into the left eyes in Group 5 to Group 8 of Ocular Hypertensive Rabbits, 50 μL/eye, three times. The first day of dosing in phase 1 was designated as Day 1.
as §1, §2, §3
IOP Measurement in Ocular Hypertensive Rabbits: IOP was measured at pre-modeling, and once at 1, 2, 4, 6, 8, and 10 hours post first daily dose in study phase 2.

Chain of human PDE-6C (P51160 whole entry): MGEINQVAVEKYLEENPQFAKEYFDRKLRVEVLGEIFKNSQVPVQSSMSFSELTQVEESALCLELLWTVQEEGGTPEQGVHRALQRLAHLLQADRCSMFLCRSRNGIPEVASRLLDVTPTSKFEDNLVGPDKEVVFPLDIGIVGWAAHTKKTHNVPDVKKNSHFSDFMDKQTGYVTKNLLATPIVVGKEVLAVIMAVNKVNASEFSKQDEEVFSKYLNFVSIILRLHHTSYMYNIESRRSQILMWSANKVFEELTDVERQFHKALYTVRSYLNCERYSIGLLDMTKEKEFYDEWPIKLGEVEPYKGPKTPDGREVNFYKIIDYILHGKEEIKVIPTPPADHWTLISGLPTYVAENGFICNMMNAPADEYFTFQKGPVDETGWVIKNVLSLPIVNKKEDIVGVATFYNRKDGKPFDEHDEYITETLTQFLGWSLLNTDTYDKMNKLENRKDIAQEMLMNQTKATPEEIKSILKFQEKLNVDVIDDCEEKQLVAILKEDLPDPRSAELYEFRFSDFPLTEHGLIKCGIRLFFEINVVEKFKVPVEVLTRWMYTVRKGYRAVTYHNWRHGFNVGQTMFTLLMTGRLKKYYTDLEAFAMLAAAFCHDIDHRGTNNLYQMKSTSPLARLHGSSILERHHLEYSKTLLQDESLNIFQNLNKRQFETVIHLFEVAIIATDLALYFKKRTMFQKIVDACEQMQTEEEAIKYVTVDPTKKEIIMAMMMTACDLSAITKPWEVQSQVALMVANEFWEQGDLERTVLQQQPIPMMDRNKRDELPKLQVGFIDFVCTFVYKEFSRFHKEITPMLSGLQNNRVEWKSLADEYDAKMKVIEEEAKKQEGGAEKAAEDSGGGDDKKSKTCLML

CCCc1nn(C)c2c(=O)[nH]c(-c3cc(S(=O)(=O)N4CC(CCCO)C4)ccc3OCC)nc12 [Compound 4, 5-(2-ethoxy-5-((3-(3-hydroxypropyl)azetidin-1-yl)sulfonyl)phenyl)-1-methyl-3-propyl-1,6-dihydro-7H-pyrazolo[4,3-d]pyrimidin-7-one]
IC50 [1]: < 0.01 µM | IC50 [2]: < 0.01 µM

CCCc1nn(C)c2c(=O)[nH]c(-c3cc(S(=O)(=O)N4CC(CCCO[N+](=O)[O-])C4)ccc3OCC)nc12 [Compound 18, 3-(1-((4-ethoxy-3-(1-methyl-7-oxo-3-propyl-6,7-dihydro-1H-pyrazolo[4,3-d]pyrimidin-5-yl)phenyl)sulfonyl)azetidin-3-yl)propyl nitrate]
IOP after administration ([3]; Example 8, both 10 mg/mL and 20 mg/mL doses): significantly lower the IOP | IOP compared with the vehicle treated eyes ([3]; Phase 1, 10 mg/mL, at 1, 2, 4 h post dosing, p≤0.05): significant decreased IOPs | IOP compared with the vehicle treated eyes ([3]; Phase 1, 20 mg/mL, at 1, 2, 4, 8, 10 h post dosing (8, 10 h, p≤0.05; 1, 4 h, p≤0.01; 2 h, p≤0.001)): significant decreased IOPs | OD IOP Mean ([3]; Phase 1 Group 3, 10 mg/mL (1%), 1 h post dose): 12.50 | OD IOP Mean ([3]; Phase 1 Group 3, 10 mg/mL (1%), 2 h post dose): 13.30 | OD IOP Mean ([3]; Phase 1 Group 3, 10 mg/mL (1%), 4 h post dose): 14.17 | OD IOP Mean ([3]; Phase 1 Group 3, 10 mg/mL (1%), 6 h post dose): 15.27 | OD IOP Mean ([3]; Phase 1 Group 3, 10 mg/mL (1%), 8 h post dose): 15.57 | OD IOP Mean ([3]; Phase 1 Group 3, 10 mg/mL (1%), 10 h post dose): 16.53 | OD IOP Mean ([3]; Phase 1 Group 4, 20 mg/mL (2%), 1 h post dose): 11.47 | OD IOP Mean ([3]; Phase 1 Group 4, 20 mg/mL (2%), 2 h post dose): 11.93 | OD IOP Mean ([3]; Phase 1 Group 4, 20 mg/mL (2%), 4 h post dose): 13.70 | OD IOP Mean ([3]; Phase 1 Group 4, 20 mg/mL (2%), 6 h post dose): 14.33 | OD IOP Mean ([3]; Phase 1 Group 4, 20 mg/mL (2%), 8 h post dose): 15.20 | OD IOP Mean ([3]; Phase 1 Group 4, 20 mg/mL (2%), 10 h post dose): 15.40 | tolerability ([4]; Example 9, topical instillation in rabbits): well tolerated | Reduction ratio of IOP ([4]; Group 7, 10 mg/mL, 1 h post first dose): 23.36% | Reduction ratio of IOP ([4]; Group 7, 10 mg/mL, 2 h post first dose): 35.65% | Reduction ratio of IOP ([4]; Group 7, 10 mg/mL, 4 h post first dose): 21.68% | Reduction ratio of IOP ([4]; Group 7, 10 mg/mL, 6 h post first dose): 28.06% | Reduction ratio of IOP ([4]; Group 7, 10 mg/mL, 8 h post first dose): 23.97% | Reduction ratio of IOP ([4]; Group 7, 10 mg/mL, 10 h post first dose): 21.67% | Reduction ratio of IOP ([4]; Group 8, 20 mg/mL, 1 h post first dose): 45.31% | Reduction ratio of IOP ([4]; Group 8, 20 mg/mL, 2 h post first dose): 34.59% | Reduction ratio of IOP ([4]; Group 8, 20 mg/mL, 4 h post first dose): 26.95% | Reduction ratio of IOP ([4]; Group 8, 20 mg/mL, 6 h post first dose): 18.04% | Reduction ratio of IOP ([4]; Group 8, 20 mg/mL, 8 h post first dose): 10.85% | Reduction ratio of IOP ([4]; Group 8, 20 mg/mL, 10 h post first dose): −5.73% | IOP compared with the vehicle treated eyes ([4]; Phase 2, 10 mg/mL, at 2 h post dosing): significant decreased IOPs | IOP compared with the vehicle treated eyes ([4]; Phase 2, 20 mg/mL, at 1 h post dosing): significant decreased IOPs | OD IOP Mean ([4]; Phase 2 Group 7, 10 mg/mL (1%), 1 h post first dose): 9.19 | OD IOP Mean ([4]; Phase 2 Group 7, 10 mg/mL (1%), 2 h post first dose): 13.80 | OD IOP Mean ([4]; Phase 2 Group 7, 10 mg/mL (1%), 4 h post first dose): 20.47 | OD IOP Mean ([4]; Phase 2 Group 7, 10 mg/mL (1%), 6 h post first dose): 21.53 | OD IOP Mean ([4]; Phase 2 Group 7, 10 mg/mL (1%), 8 h post first dose): 17.82 | OD IOP Mean ([4]; Phase 2 Group 7, 10 mg/mL (1%), 10 h post first dose): 15.22 | OD IOP Mean ([4]; Phase 2 Group 8, 20 mg/mL (2%), 1 h post first dose): 11.74 | OD IOP Mean ([4]; Phase 2 Group 8, 20 mg/mL (2%), 2 h post first dose): 19.67 | OD IOP Mean ([4]; Phase 2 Group 8, 20 mg/mL (2%), 4 h post first dose): 25.57 | OD IOP Mean ([4]; Phase 2 Group 8, 20 mg/mL (2%), 6 h post first dose): 28.93 | OD IOP Mean ([4]; Phase 2 Group 8, 20 mg/mL (2%), 8 h post first dose): 27.40 | OD IOP Mean ([4]; Phase 2 Group 8, 20 mg/mL (2%), 10 h post first dose): 22.63
